According to patent US6656690B2, “Mass spectrometric methods for biomolecular screening” (priority 1998, dated 2003):

Target: 27-mer model of the bacterial A site region, full ribonucleotide R
Experiment: Binding to 27-mer A site model as full ribonucleotide (R)
Conditions: RNA R
Experimental: The 27-mer model of a segment of the bacterial A site region has been prepared as a full ribonucleotide (see FIG. 27, compound R), and as a chimeric 2′-O-methylribonucleotide containing three deoxyadenosine residues (see FIG. 27, compound C). RNAs R and C have been prepared using conventional phosphoramidite chemistry on solid support. Phosphoramidites were purchased from Glen Research and used as 0.1 M solutions in acetonitrile. RNA R was prepared following the procedure given in Wincott, et al., Nucl. Acids Res., 1995, 23, 2677-2684, the disclosure of which is incorporated herein by reference in its entirety. RNA C was prepared using standard coupling cycles, deprotected, and precipitated from 10 M NH4OAc. The aminoglycoside paromomycin binds to both R and C with kD values of 0.25 and 0.45 micromolar, respectively. The reported kD values are around 0.2 μM. […]
The mass spectrum obtained from a 5 μM solution of C mixed with 125 nM paromomycin (FIG. 28A) contains [M-5H]5− ions from free C at m/z 1783.6 and the [M-5H]5− ions of the paromomycin-C complex at m/z 1907.3. […] Signals from the [M-4H]4− ions of C and the complex are detected at m/z 2229.8 and 2384.4, respectively. […] Fragment ions are detected at m/z 1005.6 (w6)2−, 1065.8 (a7-B)2−, 1162.6 (w7)2−, 1756.5 (M-Ad)5−, 2108.9 (w21-Ad)3−, 2153.4 (a20-B)3−, 2217.8 (w21)3−, and 2258.3 (a21-B)3−. […]

NC[C@@H]1O[C@H](O[C@H]2[C@@H](O)[C@H](O[C@@H]3[C@@H](O)[C@H](N)C[C@H](N)[C@H]3O[C@H]3O[C@H](CO)[C@@H](O)[C@H](O)[C@H]3N)O[C@@H]2CO)[C@H](N)[C@@H](O)[C@@H]1O [paromomycin]
Kd: 250 nM
